Source: PMC9952270, “Mitochondrial Peroxiredoxin 3 Is Rapidly Oxidized and Hyperoxidized by Fatty Acid Hydroperoxides” (Antioxidants, 2023)

T1: HsPrx3 (human peroxiredoxin 3, wtHsPrx3) (Homo sapiens, UniProt P30048)
T1 construct: gene PRDX3; three additional N-terminal Gly; E. coli BL21 Star (DE3); reduced subunit predicted 21,797 Da; three Cys; dodecamer when reduced
T1 sequence (P30048 62-256): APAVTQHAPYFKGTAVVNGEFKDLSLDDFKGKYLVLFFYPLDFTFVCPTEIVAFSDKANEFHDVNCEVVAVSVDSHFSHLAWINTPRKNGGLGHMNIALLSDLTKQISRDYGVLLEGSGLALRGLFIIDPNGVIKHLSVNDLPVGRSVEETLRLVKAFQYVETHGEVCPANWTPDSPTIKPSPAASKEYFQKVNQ

B1: Human peroxiredoxin 3 (wild type, recombinant, lacking the mitochondrial targeting sequence) (enzyme)
chain: GGGAPAVTQHAPYFKGTAVVNGEFKDLSLDDFKGKYLVLFFYPLDFTFVCPTEIVAFSDKANEFHDVNCEVVAVSVDSHFSHLAWINTPRKNGGLGHMNIALLSDLTKQISRDYGVLLEGSGLALRGLFIIDPNGVIKHLSVNDLPVGRSVEETLRLVKAFQYVETHGEVCPANWTPDSPTIKPSPAASKEYFQKVNQ
notes: predicted molecular weight of the reduced subunit 21,797 Da; Samples were alkylated (NEM or 2-iodoacetamide) before analysis; also called HsPrx3; wtHsPrx3; source: E. coli BL21 Star (DE3), purified as previously reported [13]

What was measured:
[1] = target: T1, HsPrx3 (human peroxiredoxin 3, wtHsPrx3); assay: stopped-flow intrinsic fluorescence, slope of kobs of second phase; format: biochemical; details: rate constant of peroxidatic Cys hyperoxidation; covalent oxidation, inactivating; pH 7.8, 11–12 °C, 50 mM sodium phosphate, 0.1 mM DTPA
From the text: stopped-flow intrinsic fluorescence, slope of kobs of second phase on HsPrx3 (human peroxiredoxin 3, wtHsPrx3)

[2] = target: T1, HsPrx3 (human peroxiredoxin 3, wtHsPrx3); assay: thermal unfolding by intrinsic fluorescence; format: binding; details: reduced HsPrx3 4 µM, AA 10 µM, 2 mM DTT, 50 mM phosphate, 0.1 mM DTPA, pH 7.8
[3] = target: T1, HsPrx3 (human peroxiredoxin 3, wtHsPrx3); assay: intrinsic tryptophan fluorescence quenching / FRET titration, hyperbolic fit; format: binding
[4] = target: the molecule itself; assay: ESI mass spectrometry of the intact protein after C4 HPLC; reduced HsPrx3 (10 µM) in 50 mM phosphate buffer plus 0.1 mM DTPA, pH 7.8, 25 °C, exposed to H2O2 (20 µM) or 15(S)-HpEPE (10 or 20 µM), alkylated with 2-iodoacetamide (5 mM); disulfide-bonded dimer

Molecule | khyperox. (M^-1s^-1) [1] | further results
CCCCC[C@@H](/C=C/[C@@H]1[C@@H](C/C=C\CCCC(=O)O)[C@@H]2C[C@H]1OO2)OO [PGG2, 9α,11α-epidioxy-15S-hydroperoxy-prosta-5Z,13E-dien-1-oic acid] | (3.1 ± 0.7) × 10^5 M^−1s^−1 | –
CC/C=C\C[C@@H](/C=C/C=C\C/C=C\C/C=C\CCCC(=O)O)OO [15(S)-HpEPE, 15S-hydroperoxy-5Z,8Z,11Z,13E,17Z-eicosapentaenoic acid] | (2.6 ± 0.4) × 10^7 M^−1s^−1 | –
CCCCC/C=C\C/C=C\C/C=C\C/C=C\CCCC(=O)O [AA] | – | Tm shift [2]: ~ 4 °C
O=S(=O)(O)c1cccc2cccc(Nc3ccccc3)c12 [ANS, 8-anilino-1-naphtalene sulfonic acid] | – | Kd [3]: 65 ± 4 µM
CCCCC[C@@H](/C=C/C=C\C/C=C\C/C=C\CCCC(=O)O)OO [15(S)-HpETE, 15S-hydroperoxy-5Z,8Z,11Z,13E-eicosatetraenoic acid] | (1.7 ± 0.1) × 10^7 M^−1s^−1 | –
B1 | – | stoichiometry N [4]: 2
